Several values for one entry are separate records, joined by “and”; a condition that tells them apart may be missing. Equal entries are not always repeated.
Tested on: OVCAR-5 complex spheroids, viability
Assay: Anticancer human tumor OVCAR-5 cell line growth inhibition;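 further: spheroids exposed to agents for seven days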;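 on viability, T/C: 100% = DMSO vehicle control wells viability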
Details: for viability, T/C: stronger effect = lower value
How it was run: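 Complex spheroids of tumor cells with HUVEC and human MSCs, exposed to iadademstat combined with other agents. Each agent tested in half-log steps from near clinical Cmax (else 10 microM top), DMSO ≤0.25%.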

[1] = curve of first compound, second compound 0.1 µM
[2] = curve of first compound, second compound 0.316 µM
[3] = curve of first compound, second compound 1 µM
[4] = curve of first compound, second compound 3.16 µM
[5] = curve of first compound, second compound 10 µM
[6] = second compound 0.1 µM, first compound 0.0316 µM
[7] = second compound 0.1 µM, first compound 0.1 µM
[8] = second compound 0.1 µM, first compound 0.316 µM
[9] = second compound 0.1 µM, first compound 1 µM
[10] = second compound 0.316 µM, first compound 0.0316 µM
[11] = second compound 0.316 µM, first compound 0.1 µM
[12] = second compound 0.316 µM, first compound 0.316 µM
[13] = second compound 0.316 µM, first compound 1 µM
[14] = second compound 1 µM, first compound 0.0316 µM
[15] = second compound 1 µM, first compound 0.1 µM
[16] = second compound 1 µM, first compound 0.316 µM
[17] = second compound 1 µM, first compound 1 µM
[18] = second compound 3.16 µM, first compound 0.0316 µM
[19] = second compound 3.16 µM, first compound 0.1 µM
[20] = second compound 3.16 µM, first compound 0.316 µM
[21] = second compound 3.16 µM, first compound 1 µM
[22] = second compound 10 µM, first compound 0.0316 µM
[23] = second compound 10 µM, first compound 0.1 µM
[24] = second compound 10 µM, first compound 0.316 µM
[25] = second compound 10 µM, first compound 1 µM

With `Nc1ncn(C2CC(O)C(CO)S2)c(=O)n1` (stereo not drawn) the viability, T/C (compound 0.000949 µM) was 107% and 104%, the viability, T/C (compound 0.003 µM) was 104% and 109% and the viability, T/C (compound 0.00949 µM) was 104%. For the same molecule, the viability, T/C (compound 0.03 µM) was 97.1% and 94.2%, the viability, T/C (compound 0.0949 µM) was 82.2% and 85.6% and the viability, T/C (compound 0.3 µM) was 78.2% and 72.3%. The IC50 (curve of compound) was > 0.3 µM.
In the case of `Nc1ccccc1NC(=O)c1ccc(CNC(=O)OCc2cccnc2)cc1`, the viability, T/C (compound 0.00949 µM) is reported as 102% and 86.1%, the viability, T/C (compound 0.03 µM) is reported as 81.6% and 80.2% and the viability, T/C (compound 0.0949 µM) is reported as 63.8% and 59.6%. The viability, T/C (compound 0.3 µM) was 41.9% and 34.8%, the viability, T/C (compound 0.949 µM) was 23.9% and 19.3% and the viability, T/C (compound 3 µM) was 8.2% and 8.35%. The IC50 (curve of compound) was 0.195 µM and 0.153 µM.
Molecule `CC1COCCN1c1cc(-c2ccnn2C)c2ccnc(-c3ccn[nH]3)c2n1` (stereo not drawn) + NC1CCC(NC2CC2c2ccccc2)CC1 has an IC50 [1] of 0.0618 µM, an IC50 [2] of 0.0619 µM and an IC50 [3] of 0.0814 µM. The IC50 [4] was 0.0711 µM, the IC50 [5] was 0.0477 µM and the viability, T/C (second compound 0.1 µM, first compound 0.00316 µM) was 111%. It also gave a viability, T/C (second compound 0.1 µM, first compound 0.01 µM) of 86.9%, a viability, T/C [6] of 60.4% and a viability, T/C [7] of 41.7%. The viability, T/C [8] was 37.2%, the viability, T/C [9] was 31.6% and the viability, T/C (second compound 0.316 µM, first compound 0.00316 µM) was 110%. The viability, T/C (second compound 0.316 µM, first compound 0.01 µM) was 87.7%, the viability, T/C [10] was 61.2% and the viability, T/C [11] was 41%. For the same molecule, the viability, T/C [12] was 37.4%, the viability, T/C [13] was 32% and the viability, T/C (second compound 1 µM, first compound 0.00316 µM) was 104%. The viability, T/C (second compound 1 µM, first compound 0.01 µM) was 88.8%, the viability, T/C [14] was 65.2% and the viability, T/C [15] was 46.2%. The viability, T/C [16] was 39.4%, the viability, T/C [17] was 34.7% and the viability, T/C (second compound 3.16 µM, first compound 0.00316 µM) was 83.8%. It also gave a viability, T/C (second compound 3.16 µM, first compound 0.01 µM) of 83.4%, a viability, T/C [18] of 60.1% and a viability, T/C [19] of 46.8%. For the same molecule, the viability, T/C [20] was 40.7%, the viability, T/C [21] was 35.8% and the viability, T/C (second compound 10 µM, first compound 0.00316 µM) was 79.1%. The viability, T/C (second compound 10 µM, first compound 0.01 µM) was 65.9%, the viability, T/C [22] was 55% and the viability, T/C [23] was 41.9%. The viability, T/C [24] was 37.8% and the viability, T/C [25] was 33.3%.
For `O=C(C=Cn1cnc(-c2cc(C(F)(F)F)cc(C(F)(F)F)c2)n1)NNc1cnccn1`, the viability, T/C (compound 0.00316 µM) was 91.8% and 90.3%, the viability, T/C (compound 0.01 µM) was 83.9% and 74.8% and the viability, T/C (compound 0.0316 µM) was 72.3% and 58.3%. For the same molecule, the viability, T/C (compound 0.1 µM) was 53.3% and 44%, the viability, T/C (compound 0.316 µM) was 48.7% and 38.9% and the viability, T/C (compound 1 µM) was 40.4% and 34.1%. For the same molecule, the IC50 (curve of compound) was 0.196 µM and 0.0637 µM.
In the case of `CC(C)c1c(-c2ccccc2)nc2c(C#N)c[nH]n2c1=O` + NC1CCC(NC2CC2c2ccccc2)CC1, the IC50 [1] is reported as > 10 µM, the IC50 [2] is reported as > 10 µM and the IC50 [3] is reported as > 10 µM. For the same molecule, the IC50 [4] was > 10 µM, the IC50 [5] was > 10 µM and the viability, T/C [6] was 114%. For the same molecule, the viability, T/C [7] was 124%, the viability, T/C [8] was 108% and the viability, T/C [9] was 130%. It also gave a viability, T/C (second compound 0.1 µM, first compound 3.16 µM) of 113%, a viability, T/C (second compound 0.1 µM, first compound 10 µM) of 117% and a viability, T/C [10] of 119%. It also gave a viability, T/C [11] of 122%, a viability, T/C [12] of 114% and a viability, T/C [13] of 104%. The viability, T/C (second compound 0.316 µM, first compound 3.16 µM) was 118%, the viability, T/C (second compound 0.316 µM, first compound 10 µM) was 121% and the viability, T/C [14] was 110%. It also gave a viability, T/C [15] of 105%, a viability, T/C [16] of 111% and a viability, T/C [17] of 113%. It also gave a viability, T/C (second compound 1 µM, first compound 3.16 µM) of 115%, a viability, T/C (second compound 1 µM, first compound 10 µM) of 106% and a viability, T/C [18] of 92.9%. For the same molecule, the viability, T/C [19] was 102%, the viability, T/C [20] was 108% and the viability, T/C [21] was 101%. It also gave a viability, T/C (second compound 3.16 µM, first compound 3.16 µM) of 89.3%, a viability, T/C (second compound 3.16 µM, first compound 10 µM) of 93.5% and a viability, T/C [22] of 88.5%. It also gave a viability, T/C [23] of 81.5%, a viability, T/C [24] of 77.4% and a viability, T/C [25] of 79.9%. For the same molecule, the viability, T/C (second compound 10 µM, first compound 3.16 µM) was 82.7% and the viability, T/C (second compound 10 µM, first compound 10 µM) was 79.3%.
For `CC(C)CC(NC(=O)CNC(=O)c1cc(Cl)ccc1Cl)B1OC(=O)CC(CC(=O)O)(C(=O)O)O1` (stereo not drawn), the viability, T/C (compound 0.000316 µM) was 94.7% and 103%, the viability, T/C (compound 0.001 µM) was 95.6% and 99.8% and the viability, T/C (compound 0.00316 µM) was 92.1% and 95.9%. The viability, T/C (compound 0.01 µM) was 80.1% and 77.8%, the viability, T/C (compound 0.0316 µM) was 85% and 71.1% and the viability, T/C (compound 0.1 µM) was 70.6% and 57.8%. For the same molecule, the IC50 (curve of compound) was > 0.1 µM.
